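Assay format: 96-well plates, 48-hour exposure. GI50 marks 50% less growth.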 Active and inactive are the calls of the source. No stated cut-off is given here; in the data, active = GI50 up to about 1.1 µM and inactive = higher.
Legend:
Experiment in all cases: DTP human tumour cell line panel, 48 h
SW-620 = tested on: SW-620
HCT-116 = tested on: HCT-116
Malme-3M = tested on: Malme-3M
OVCAR-8 = tested on: OVCAR-8
OVCAR-3 = tested on: OVCAR-3
Hs-578T = tested on: Hs-578T
NCI-H226 = tested on: NCI-H226
KM12 = tested on: KM12
NCI-H23 = tested on: NCI-H23
SK-MEL-5 = tested on: SK-MEL-5
SF-268 = tested on: SF-268
HCT-15 = tested on: HCT-15
UACC-62 = tested on: UACC-62
MCF7 = tested on: MCF7
MDA-MB-231 = tested on: MDA-MB-231
COLO 205 = tested on: COLO 205
NCI/ADR-RES = tested on: NCI/ADR-RES
LOX IMVI = tested on: LOX IMVI

C=C(C)C1=CCC[C@]2(C1)N=C(OC)[C@@H](C(C)C)N=C2OC was tested, and the GI50 (SW-620) was > 100 µM (inactive), the GI50 (HCT-116) was > 100 µM (inactive) and the GI50 (Malme-3M) was > 100 µM (inactive). For the same molecule, the GI50 (OVCAR-8) was > 100 µM (inactive), the GI50 (OVCAR-3) was > 100 µM (inactive) and the GI50 (Hs-578T) was > 100 µM (inactive). For the same molecule, the GI50 (NCI-H226) was > 100 µM (inactive), the GI50 (KM12) was > 100 µM (inactive) and the GI50 (NCI-H23) was > 100 µM (inactive). For the same molecule, the GI50 (SK-MEL-5) was 98.6 µM (inactive), the GI50 (SF-268) was > 100 µM (inactive) and the GI50 (HCT-15) was > 100 µM. For the same molecule, the GI50 (UACC-62) was > 100 µM (inactive), the GI50 (MCF7) was 92.7 µM (inactive) and the GI50 (MDA-MB-231) was > 100 µM (inactive). The GI50 (COLO 205) was > 100 µM (inactive) and the GI50 (NCI/ADR-RES) was > 100 µM (inactive).

For Cn1c(=O)c2c(nc(NCCNc3nc4c(c(=O)n(C)c(=O)n4C)n3C)n2C)n(C)c1=O, the GI50 (SW-620) was > 100 µM (inactive), the GI50 (HCT-116) was > 100 µM (inactive) and the GI50 (Malme-3M) was > 100 µM (inactive). For the same molecule, the GI50 (OVCAR-8) was > 100 µM (inactive), the GI50 (OVCAR-3) was > 100 µM (inactive) and the GI50 (Hs-578T) was > 100 µM (inactive). The GI50 (NCI-H226) was > 100 µM (inactive), the GI50 (KM12) was > 100 µM (inactive) and the GI50 (NCI-H23) was > 100 µM (inactive). The GI50 (SK-MEL-5) was > 100 µM (inactive), the GI50 (SF-268) was > 100 µM (inactive) and the GI50 (HCT-15) was > 100 µM. For the same molecule, the GI50 (LOX IMVI) was > 100 µM (inactive), the GI50 (UACC-62) was > 100 µM (inactive) and the GI50 (MDA-MB-231) was > 100 µM (inactive). For the same molecule, the GI50 (NCI/ADR-RES) was > 100 µM (inactive).

For CC(=O)Oc1ccc2cc(Oc3ccc(Cl)cc3)c(=O)oc2c1, the GI50 (SW-620) was 40.8 µM (inactive), the GI50 (HCT-116) was 27.5 µM (inactive) and the GI50 (Malme-3M) was 25 µM (inactive). For the same molecule, the GI50 (OVCAR-8) was 19.1 µM (inactive), the GI50 (OVCAR-3) was 19.2 µM (inactive) and the GI50 (Hs-578T) was 79.1 µM (inactive). The GI50 (NCI-H226) was 41.5 µM (inactive), the GI50 (KM12) was 37.8 µM (inactive) and the GI50 (NCI-H23) was 41.4 µM (inactive). For the same molecule, the GI50 (SK-MEL-5) was 20.4 µM (inactive), the GI50 (SF-268) was 53.8 µM (inactive) and the GI50 (HCT-15) was 28.8 µM. The GI50 (LOX IMVI) was 37.9 µM (inactive), the GI50 (MCF7) was 32.7 µM (inactive) and the GI50 (MDA-MB-231) was 44.3 µM (inactive).

In the case of Cn1c(=O)c2nc3nnc(C#N)c(N)n3c2n(C)c1=O, the GI50 (HCT-116) is reported as > 100 µM (inactive), the GI50 (Malme-3M) is reported as 25.2 µM (inactive) and the GI50 (OVCAR-8) is reported as > 100 µM (inactive). The GI50 (OVCAR-3) was > 100 µM (inactive), the GI50 (NCI-H226) was 54.1 µM (inactive) and the GI50 (KM12) was > 100 µM (inactive). For the same molecule, the GI50 (SK-MEL-5) was 45.9 µM (inactive), the GI50 (SF-268) was > 100 µM (inactive) and the GI50 (HCT-15) was > 100 µM. The GI50 (UACC-62) was > 100 µM (inactive), the GI50 (MCF7) was > 100 µM (inactive) and the GI50 (MDA-MB-231) was > 100 µM (inactive). For the same molecule, the GI50 (COLO 205) was > 100 µM (inactive) and the GI50 (NCI/ADR-RES) was > 100 µM (inactive).

For CCCCCCc1cc2cc(C(=O)Nc3cccc(F)c3)c(=N)oc2cc1O, the GI50 (SW-620) was 3.39 µM (inactive), the GI50 (HCT-116) was 2.86 µM (inactive) and the GI50 (Malme-3M) was 2.31 µM (inactive). For the same molecule, the GI50 (OVCAR-8) was 1.59 µM (inactive), the GI50 (OVCAR-3) was 4.19 µM (inactive) and the GI50 (Hs-578T) was 2.21 µM (inactive). The GI50 (KM12) was 2.71 µM (inactive), the GI50 (NCI-H23) was 2.12 µM (inactive) and the GI50 (SK-MEL-5) was 1.4 µM (inactive). For the same molecule, the GI50 (SF-268) was 2.32 µM (inactive), the GI50 (HCT-15) was 2.31 µM and the GI50 (LOX IMVI) was 1.67 µM (inactive). For the same molecule, the GI50 (UACC-62) was 1.94 µM (inactive), the GI50 (MCF7) was 3.19 µM (inactive) and the GI50 (COLO 205) was 14.6 µM (inactive). The GI50 (NCI/ADR-RES) was 2.35 µM (inactive).

With CCN(CC)c1ccc2cc(-c3csc(C)n3)c(=O)oc2c1 the GI50 (SW-620) was > 100 µM (inactive), the GI50 (HCT-116) was 69.8 µM (inactive) and the GI50 (Hs-578T) was 25.7 µM (inactive). The GI50 (NCI-H226) was 57.4 µM (inactive), the GI50 (KM12) was 13.5 µM (inactive) and the GI50 (SK-MEL-5) was 37.9 µM (inactive). The GI50 (SF-268) was 81.3 µM (inactive), the GI50 (HCT-15) was > 100 µM and the GI50 (LOX IMVI) was 67.3 µM (inactive). The GI50 (UACC-62) was 52.8 µM (inactive), the GI50 (MCF7) was > 100 µM (inactive) and the GI50 (MDA-MB-231) was 71.8 µM (inactive). For the same molecule, the GI50 (COLO 205) was > 100 µM (inactive).

Cc1nn(C(=O)c2ccccc2O)c2c1C(c1ccc3ccccc3c1O)SC(=N)N2 (stereo unspecified) was tested, and the GI50 (SW-620) was 4.61 µM (inactive), the GI50 (HCT-116) was 1.5 µM (inactive) and the GI50 (Malme-3M) was > 10 µM (inactive). For the same molecule, the GI50 (OVCAR-8) was 5.11 µM (inactive), the GI50 (OVCAR-3) was 2.69 µM (inactive) and the GI50 (Hs-578T) was 1.7 µM (inactive). The GI50 (NCI-H226) was 2.65 µM (inactive), the GI50 (KM12) was 7.46 µM (inactive) and the GI50 (NCI-H23) was 4.97 µM (inactive). For the same molecule, the GI50 (SK-MEL-5) was 1.63 µM (inactive), the GI50 (SF-268) was 4.89 µM (inactive) and the GI50 (HCT-15) was 4.26 µM. For the same molecule, the GI50 (LOX IMVI) was 3.75 µM (inactive), the GI50 (UACC-62) was 1.77 µM (inactive) and the GI50 (MCF7) was 2.44 µM (inactive). For the same molecule, the GI50 (MDA-MB-231) was 3.05 µM (inactive) and the GI50 (COLO 205) was 2.4 µM (inactive).

In the case of Cc1cccnc1N/C=C1\C(=O)NC(=O)N(C)C1=O, the GI50 (SW-620) is reported as > 100 µM (inactive), the GI50 (HCT-116) is reported as > 100 µM (inactive) and the GI50 (Malme-3M) is reported as 13 µM (inactive). For the same molecule, the GI50 (OVCAR-8) was > 100 µM (inactive), the GI50 (OVCAR-3) was > 100 µM (inactive) and the GI50 (Hs-578T) was > 100 µM (inactive). The GI50 (NCI-H226) was > 100 µM (inactive), the GI50 (KM12) was > 100 µM (inactive) and the GI50 (NCI-H23) was 49.7 µM (inactive). The GI50 (SK-MEL-5) was > 100 µM (inactive), the GI50 (SF-268) was > 100 µM (inactive) and the GI50 (HCT-15) was > 100 µM. For the same molecule, the GI50 (LOX IMVI) was 93.8 µM (inactive), the GI50 (UACC-62) was > 100 µM (inactive) and the GI50 (MCF7) was > 100 µM (inactive). The GI50 (COLO 205) was > 100 µM (inactive).

For O=C(CBr)N1CCC2(CC1)SSC1(CCN(C(=O)CBr)CC1)S2, the GI50 (SW-620) was 0.332 µM (active), the GI50 (HCT-116) was 0.373 µM (active) and the GI50 (OVCAR-8) was 1.93 µM (inactive). For the same molecule, the GI50 (Hs-578T) was 1.72 µM (inactive), the GI50 (KM12) was 1.7 µM (inactive) and the GI50 (NCI-H23) was 1.6 µM (inactive). The GI50 (HCT-15) was 1.44 µM, the GI50 (LOX IMVI) was 0.064 µM (active) and the GI50 (UACC-62) was 1.47 µM (inactive). For the same molecule, the GI50 (MDA-MB-231) was 2.33 µM (inactive), the GI50 (COLO 205) was 0.368 µM (active) and the GI50 (NCI/ADR-RES) was 1.97 µM (inactive).
